Here are results for 9 compounds from paper PMC4186771 (Journal of neurochemistry, 2013).

For assay [1], the target named is α1β2γ2 Cys-less GABAAR [α1(C234A,C293A)β2(C288A)γ2(C244A,C303A)] (UniProt P18508+P47870+P62813, C260A/C282A/C312A/C319A/C341A). The experiment in a line: GABA-induced currents, two-electrode voltage clamp in Xenopus laevis oocytes. It is filed as cell-based, rat α1 and γ2s, human β2. The following applies: for Modulation of the Cys-less receptor compared with WT: Cys-less versus wild-type α1β2γ2. A general note: Two-electrode voltage clamp is typically applied to oocytes expressing channels or transporters.

Assay [2] has as its target α1β2(T225C,L285C)γ2 GABAAR (UniProt P18508+P47870+P62813, C260A/C282A/C312A/C319A/C341A/L309C/T249C). The assay is described as above. It is filed as cell-based, rat α1 and γ2s, human β2.
For assay [3], the target named is α1β2(N265C,L285C)γ2 GABAAR (UniProt P18508+P47870+P62813, C260A/C282A/C312A/C319A/C341A/L309C/N289C). The description is as above. Format: cell-based, rat α1 and γ2s, human β2.
In assay [4] the target is α1β2(N265C,F289C)γ2 GABAAR (UniProt P18508+P47870+P62813, C260A/C282A/C312A/C319A/C341A/F313C/N289C). The assay is described as above. The conditions noted are these: change vs initial response, compared with Cys-less; EC50 GABA; DTT 2 mM 2 min. It is filed as cell-based, rat α1 and γ2s, human β2.
Assay [5] deals with α1β2(N265C,C288)γ2 GABAAR (UniProt P18508+P47870+P62813, C260A/C282A/C319A/C341A/N289C). The assay is described as above. It is filed as cell-based, rat α1 and γ2s, human β2.
Assay [6] has as its target α1β2(T225C,N265C)γ2 GABAAR (UniProt P18508+P47870+P62813, C260A/C282A/C312A/C319A/C341A/N289C/T249C). The assay is described as above. Format: cell-based, rat α1 and γ2s, human β2. The conditions noted are these: change vs initial response, compared with Cys-less; 1 mM GABA; DTT 2 mM 2 min.
Assay [7] deals with α1(Q229C)β2(N265C)γ2 GABAAR (UniProt P18508+P47870+P62813, C260A/C282A/C312A/C319A/C341A/N289C/Q255C). The assay is described as above. The conditions noted are these: change vs initial response, compared with Cys-less; EC50 GABA; DTT 2 mM 2 min. Format: cell-based, rat α1 and γ2s, human β2.
The target in assay [8] is α1(L232C)β2(M286C)γ2 GABAAR (UniProt P18508+P47870+P62813, C260A/C282A/C312A/C319A/C341A/L258C/M310C). Described as above. It is filed as cell-based, rat α1 and γ2s, human β2.
Chain of α1(L232C)β2(M286C)γ2 GABAAR (P62813 28-455 L258C/C260A/C319A): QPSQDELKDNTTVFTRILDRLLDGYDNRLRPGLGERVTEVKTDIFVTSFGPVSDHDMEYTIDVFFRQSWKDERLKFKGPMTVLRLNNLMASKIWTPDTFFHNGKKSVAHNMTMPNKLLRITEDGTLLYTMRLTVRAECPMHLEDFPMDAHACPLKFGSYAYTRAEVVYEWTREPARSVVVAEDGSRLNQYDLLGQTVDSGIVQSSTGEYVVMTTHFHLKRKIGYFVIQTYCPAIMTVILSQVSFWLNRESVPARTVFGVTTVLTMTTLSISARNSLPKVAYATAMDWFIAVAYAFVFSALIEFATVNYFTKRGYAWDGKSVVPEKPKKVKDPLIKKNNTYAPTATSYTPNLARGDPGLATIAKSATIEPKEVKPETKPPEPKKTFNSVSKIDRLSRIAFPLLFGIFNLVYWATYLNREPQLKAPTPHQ
Chain of α1(L232C)β2(M286C)γ2 GABAAR (P47870 25-474 isoform P47870-1 M310C/C312A limits assumed): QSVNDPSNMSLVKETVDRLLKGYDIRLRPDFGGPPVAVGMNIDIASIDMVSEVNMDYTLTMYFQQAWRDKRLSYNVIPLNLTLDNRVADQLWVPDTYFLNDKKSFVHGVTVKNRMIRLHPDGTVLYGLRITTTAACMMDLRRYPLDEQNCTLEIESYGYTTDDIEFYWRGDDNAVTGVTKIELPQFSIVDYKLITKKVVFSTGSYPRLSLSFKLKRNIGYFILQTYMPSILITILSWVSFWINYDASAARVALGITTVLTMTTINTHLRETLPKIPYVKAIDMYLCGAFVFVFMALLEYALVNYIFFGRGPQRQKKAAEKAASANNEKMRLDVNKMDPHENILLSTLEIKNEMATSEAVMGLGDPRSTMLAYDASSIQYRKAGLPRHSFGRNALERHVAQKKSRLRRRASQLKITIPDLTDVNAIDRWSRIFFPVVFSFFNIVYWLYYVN
Chain of α1(L232C)β2(M286C)γ2 GABAAR (P18508 39-466 C282A/C341A): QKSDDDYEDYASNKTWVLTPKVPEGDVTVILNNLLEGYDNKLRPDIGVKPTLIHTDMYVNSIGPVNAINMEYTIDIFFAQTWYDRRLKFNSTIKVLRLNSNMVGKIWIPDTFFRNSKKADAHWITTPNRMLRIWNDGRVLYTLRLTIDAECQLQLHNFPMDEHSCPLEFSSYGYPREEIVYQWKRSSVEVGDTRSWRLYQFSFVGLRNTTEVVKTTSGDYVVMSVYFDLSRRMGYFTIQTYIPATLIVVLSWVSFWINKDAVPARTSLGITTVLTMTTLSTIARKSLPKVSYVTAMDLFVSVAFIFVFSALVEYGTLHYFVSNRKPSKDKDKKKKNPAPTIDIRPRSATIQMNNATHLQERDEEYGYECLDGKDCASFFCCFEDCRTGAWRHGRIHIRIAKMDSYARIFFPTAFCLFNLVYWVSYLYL
For assay [9], the target named is α1(L232C)β2(F289C)γ2 GABAAR (UniProt P18508+P47870+P62813, C260A/C282A/C312A/C319A/C341A/F313C/L258C). Described as above. It is filed as cell-based, rat α1 and γ2s, human β2. The conditions noted are these: change vs initial response, compared with Cys-less; 100 μM GABA; DTT 2 mM 2 min.
For assay [10], the target named is α1(Q229C)β2(M286C)γ2 GABAAR (UniProt P18508+P47870+P62813, C260A/C282A/C312A/C319A/C341A/M310C/Q255C). The description is as above. Format: cell-based, rat α1 and γ2s, human β2. The following applies: change vs initial response, compared with Cys-less; EC50 GABA; DTT 2 mM 2 min.
Assay [11] has as its target α1β2(T225C,C288)γ2 GABAAR (UniProt P18508+P47870+P62813, C260A/C282A/C319A/C341A/T249C). The description is as above. It is filed as cell-based, rat α1 and γ2s, human β2. The conditions noted are these: change vs initial response, compared with Cys-less; EC50 GABA; DTT 2 mM 2 min.
Assay [12] concerns the target α1β2(N265C,M286C)γ2 GABAAR (UniProt P18508+P47870+P62813, C260A/C282A/C312A/C319A/C341A/M310C/N289C). The description is as above. It is filed as cell-based, rat α1 and γ2s, human β2. The following applies: change vs initial response, compared with Cys-less; EC50 GABA; DTT 2 mM 2 min.
The target of assay [13] is β2C288-containing GABAARs (UniProt P18508+P47870+P62813, C260A/C282A/C319A/C341A). The description is as above. Format: cell-based, rat α1 and γ2s, human β2. The conditions noted are these: EC10 GABA; BMTS 0.5 mM co-applied with maximal GABA.
The target of the next assay is α1β2(M286C)γ2 GABAAR (UniProt P18508+P47870+P62813, C260A/C282A/C312A/C319A/C341A/M310C). The description is as above. Format: cell-based, rat α1 and γ2s, human β2.
A further assay addresses α1(L232C)β2γ2 GABAAR (UniProt P18508+P47870+P62813, C260A/C282A/C312A/C319A/C341A/L258C). The description is as above. It is filed as cell-based, rat α1 and γ2s, human β2.
The target in the next assay is α1β2(T225C)γ2 GABAAR (UniProt P18508+P47870+P62813, C260A/C282A/C312A/C319A/C341A/T249C). Described as above. It is filed as cell-based, rat α1 and γ2s, human β2. The following applies: EC10 GABA; BMTS 0.5 mM co-applied with maximal GABA.
The target in assay [14] is β2(N265C)-containing GABAARs (UniProt P18508+P47870+P62813, C260A/C282A/C312A/C319A/C341A/N289C). Described as above. Format: cell-based, rat α1 and γ2s, human β2.
The target in a further assay is α1(Q229C)β2γ2 GABAAR (UniProt P18508+P47870+P62813, C260A/C282A/C312A/C319A/C341A/Q255C). Described as above. Format: cell-based, rat α1 and γ2s, human β2. The conditions noted are these: Butanol (33 mM) modulation of EC10 GABA; after versus before BMTS labeling.
Another assay concerns the target α1β2(F289C)γ2 GABAAR (UniProt P18508+P47870+P62813, C260A/C282A/C312A/C319A/C341A/F313C). The assay is described as above. It is filed as cell-based, rat α1 and γ2s, human β2.
Assay [15] addresses β2(L285C)-containing GABAARs (UniProt P18508+P47870+P62813, C260A/C282A/C312A/C319A/C341A/L309C). The assay is described as above. It is filed as cell-based, rat α1 and γ2s, human β2.
A further assay concerns bovine GABAAR. The following applies: ref Li et al. 2010; cited from earlier work.
The test system of the next assay is wild-type GLIC. The following applies: intra-subunit binding; ref Weng et al. 2010; cited from earlier work.
For assay [16], the system named is mutated alcohol-sensitive GLIC. The following applies: inter-subunit binding; ref Howard et al. 2011; cited from earlier work.
Assay [17] deals with recombinant α1β3γ2 GABAARs. The following applies: in the presence of GABA; ref Chiara et al. 2013; cited from earlier work.
The mark [18] stands for this setting: change vs initial response, compared with Cys-less, EC50 GABA, DTT 2 mM 2 min.
Where [19] appears, read: EC10 GABA, BMTS 0.5 mM co-applied with maximal GABA.
Where [20] appears, read: Butanol (33 mM) modulation of EC10 GABA, after versus before BMTS labeling.
[21] abbreviates: Butanol modulation of EC10 GABA, 11 and 33 mM, after Cu^++:Phen versus after DTT.
Where [22] appears, read: single cysteine mutant, no treatment.
[23] abbreviates: Isoflurane 0.3 and 0.9 mM on EC10 GABA, after Cu^++:Phen versus after DTT.
[24] abbreviates: Isoflurane 0.3 mM on EC10 GABA, after versus before BMTS labeling.

Chain of α1(L232C)β2γ2 GABAAR (P62813 28-455 L258C/C260A/C319A): as the sequence (P62813 28-455 L258C/C260A/C319A) above
Chain of α1(L232C)β2γ2 GABAAR (P47870 25-474 isoform P47870-1 C312A limits assumed): as the sequence (P47870 25-474 isoform P47870-1 M310C/C312A limits assumed) above, with C286M counted along it
Chain of α1(L232C)β2γ2 GABAAR (P18508 39-466 C282A/C341A): as the sequence (P18508 39-466 C282A/C341A) above
Chain of α1β2(T225C,L285C)γ2 GABAAR (P62813 28-455 C260A/C319A): as the sequence (P62813 28-455 L258C/C260A/C319A) above, with C231L counted along it
Chain of α1β2(T225C,L285C)γ2 GABAAR (P47870 25-474 isoform P47870-1 T249C/L309C/C312A limits assumed): as the sequence (P47870 25-474 isoform P47870-1 M310C/C312A limits assumed) above, with T225C, L285C, C286M counted along it
Chain of α1β2(T225C,L285C)γ2 GABAAR (P18508 39-466 C282A/C341A): as the sequence (P18508 39-466 C282A/C341A) above

For the compound `O[C@@H](CS)[C@@H](O)CS` (racemic) [DTT, dithiothreitol], the “GABA responses After DTT” value in assay [1] (change vs initial response, EC50 GABA, DTT 2 mM 2 min) was “No change”; in [2] (setting [18]), “No change”; in [3] (setting [18]), “No change”; in [4], “Increase”; in [5] (setting [18]) it was “No change”; in assay [6], “Increase”. Further, the “GABA responses After DTT” value in assay [7] was “Decrease”; in [8] (setting [18]) it was “No change”; in assay [9] it was “Increase”; in assay [10], “Increase”; in assay [11] it was “Increase”; in assay [12], “Decrease”.

With `CCCCSS(C)(=O)=O` [BMTS, butyl methanethiosulfonate], the “GABA responses after BMTS + GABA” value in assay [13] is “No change”; in assay [1] (setting [19]), “No change”; at α1β2(M286C)γ2 GABAAR (setting [19]), “Increase”; at α1(L232C)β2γ2 GABAAR (setting [19]), “Increase”; at α1β2(T225C)γ2 GABAAR it was “No net change”.

Consider `CCCCO` [Butanol, butanol], for which the “Butanol effect after BMTS labeling” value is given as “No change/ Small decrease” in assay [1] (setting [20]); “Decrease” at α1β2(M286C)γ2 GABAAR (setting [20]); “Decrease” in assay [14] (setting [20]); “No change” at α1(Q229C)β2γ2 GABAAR; “No change” in [15] (setting [20]); “No change” on α1(L232C)β2γ2 GABAAR (setting [20]). Moreover, the “Butanol effect After crosslink” value is listed as “No change” in [1] (setting [21]); “Decrease” in [2] (setting [21]); “Decrease” in assay [3] (setting [21]); “Decrease” in assay [5] (setting [21]); “No change” in assay [8] (setting [21]). In addition, the “Change in the butanol potentiation after oxidation” value in assay [2] (Butanol on EC10 GABA, after Cu^++:Phen versus after DTT) is reported as −51%. The “Butanol potentiation of GABA responses compared with the Cys-less receptor” value (on α1β2(M286C)γ2 GABAAR (setting [22]); in assay [14] (setting [22]); on α1β2(F289C)γ2 GABAAR (setting [22]); in assay [15] (setting [22]); at α1(L232C)β2γ2 GABAAR (setting [22])) was “decreased” each time.

In the case of `FC(F)OC(Cl)C(F)(F)F` (stereo not drawn) [Isoflurane], the “Isoflurane potentiation after oxidation (crosslink)” value in assay [2] (setting [23]) is “decrease”. In addition, the “Isoflurane potentiation after BMTS labeling” value (on α1β2(M286C)γ2 GABAAR (setting [24]); in assay [14] (setting [24])) was “decreased” in each case. The “Isoflurane effect after oxidation (crosslink)” value in assay [8] (setting [23]) was “no changes”. The “Block of etomidate analog photolabeling” value in the assay with bovine GABAAR is on record as “isoflurane could”. Also, the “Isoflurane effect after BMTS labeling” value at α1β2(F289C)γ2 GABAAR (EC10 GABA, after versus before BMTS treatment, data not shown) was “switched from very small, and even inhibitory effects, to potentiation”. In addition, the “Isoflurane potentiation of GABA responses compared with the Cys-less receptor” value on α1β2(F289C)γ2 GABAAR (setting [22]) was “decreased”.

As for `FC(F)OC(F)C(F)(F)F` (stereo not drawn) [desflurane], in the assay with wild-type GLIC, the “Effect on channel function” value is “inhibits”.

As for `CCO` [ethanol], the “Modulation of the Cys-less receptor compared with WT” value in assay [1] is on record as “essentially the same as WT”. In addition, in [16], the “Effect on channel function” value was “potentiates”.

With `CCCCCCCCO` [octanol], in the assay on bovine GABAAR, the “Block of etomidate analog photolabeling” value is listed as “neither octanol nor ethanol could block”. For the same compound, the Block of photolabeling entry in assay [17] is “blocked”.

Regarding `CC(C)c1cccc(C(C)C)c1O` [propofol], in the assay with wild-type GLIC, the “Effect on channel function” value was “inhibits”.

Take `[Zn]` [zinc]: the “Modulation of the Cys-less receptor compared with WT” value in assay [1] was “essentially the same as WT”.
